Test results from patent publication US20260297081A1, “COMPOUNDS AND METHODS OF TREATING CANCERS” (Cullgen Inc., priority 2023, published 2026).
pIC50: −log10 of the molar value.

System: MCF7 cells
Test: Anti-proliferation (viability) of MCF7 cells (Table 7, FIG. 2B)
Type: cell-based
Conditions: Homo sapiens, MCF7, MCF7 cells, 3-6 days, 10-point serial dilution; read-out: GI IC50 in MCF-7

Compound	pIC50
CC(=O)c1c(C)c2cnc(Nc3ccc(N4CCC5(CC4)CC5C(=O)N4CCC(Nc5nc(NC(C)C)ccc5C(=O)Nc5cn(C)c(C6CC6)n5)CC4)cn3)nc2n(C2CCCC2)c1=O (centres unmarked) [CPD-409, 2-((1-(6-(6-((6-acetyl-8-cyclopentyl-5-methyl-7-oxo-7,8-dihydropyrido[2,3-d]pyrimidin-2-yl)amino)pyridin-3-yl)-6-azaspiro[2.5]octane-1-carbonyl)piperidin-4-yl)amino)-N-(2-cyclopropyl-1-menthyl-1H-imidazol-4-yl)-6-(isopropylamino)nicotinamide]	> 7.30
CC(=O)c1c(C)c2cnc(Nc3ccc(N4CCC5(CC4)CC5C(=O)N4CC5(CC(Nc6nc(NC(C)C)ccc6C(=O)Nc6cn(C)c(C7CC7)n6)C5)C4)cn3)nc2n(C2CCCC2)c1=O (centres unmarked) [CPD-412, 2-((2-(6-(6-((6-acetyl-8-cyclopentyl-5-methyl-7-oxo-7,8-dihydropyrido[2,3-d]pyrimidin-2-yl)amino)pyridin-3-yl)-6-azaspiro[2.5]octane-1-carbonyl)-2-azaspiro[3.3]heptan-6-yl)amino)-N-(2-cyclopropyl-1-methyl-1H-imidazol-4-yl)-6-(isopropylamino)nicotinamide]	< 7.00
CC(=O)c1c(C)c2cnc(Nc3ccc(N4CCC5(CC4)CC5C(=O)NC4CCC(Nc5nc(NC(C)C)ccc5C(=O)Nc5ccc(N(C)C)nn5)C4)cn3)nc2n(C2CCCC2)c1=O (centres unmarked) [CPD-417, 6-(6-((6-acetyl-8-cyclopentyl-5-methyl-7-oxo-7,8-dihydropyrido[2,3-d]pyrimidin-2-yl)amino)pyridin-3-yl)-N-(3-((3-((6-(dimethylamino)pyridazin-3-yl)carbamoyl)-6-(isopropylamino)pyridin-2-yl)amino)cyclopentyl)-6-azaspiro[2.5]octane-1-carboxamide]	< 7.00
CC(=O)c1c(C)c2cnc(Nc3ccc(N4CC5(CN(CC(=O)N6CCC(Nc7nc(NC(C)C)ccc7C(=O)Nc7ccc(N(C)C)nn7)CC6)C5)C4)cn3)nc2n(C2CCCC2)c1=O [CPD-418, 2-((1-(2-(6-(6-((6-acetyl-8-cyclopentyl-5-methyl-7-oxo-7,8-dihydropyrido[2,3-d]pyrimidin-2-yl)amino)pyridin-3-yl)-2,6-diazaspiro[3.3]heptan-2-yl)acetyl)piperidin-4-yl)amino)-N-(6-(dimethylamino)pyridazin-3-yl)-6-(isopropylamino)nicotinamide]	> 7.30
CC(=O)c1c(C)c2cnc(Nc3ccc(CN4CCN(CC(=O)N5CCC(Nc6nc(NC(C)C)ccc6C(=O)Nc6cn(C)c(C7CC7)n6)CC5)CC4)cn3)nc2n(C2CCCC2)c1=O [CPD-420, 2-((1-(2-(4-((6-((6-acetyl-8-cyclopentyl-5-methyl-7-oxo-7,8-dihydropyrido[2,3-d]pyrimidin-2-yl)amino)pyridin-3-yl)methyl)piperazin-1-yl)acetyl)piperidin-4-yl)amino)-N-(2-cyclopropyl-1-methyl-1H-imidazol-4-yl)-6-(isopropylamino)nicotinamide]	< 7.00
CC(=O)c1c(C)c2cnc(Nc3ccc(N4CC5(CN(CC(=O)N6CC7(CC(Nc8nc(NC(C)C)ccc8C(=O)Nc8ccc(N(C)C)nn8)C7)C6)C5)C4)cn3)nc2n(C2CCCC2)c1=O [CPD-423, 2-((2-(2-(6-(6-((6-acetyl-8-cyclopentyl-5-methyl-7-oxo-7,8-dihydropyrido[2,3-d]pyrimidin-2-yl)amino)pyridin-3-yl)-2,6-diazaspiro[3.3]heptan-2-yl)acetyl)-2-azaspiro[3.3]heptan-6-yl)amino)-N-(6-(dimethylamino)pyridazin-3-yl)-6-(isopropylamino)nicotinamide]	7.00 to 7.30
CC(=O)c1c(C)c2cnc(Nc3ccc(N4CC5(CN(CC(=O)N6CCC(Nc7nc(NC(C)C)ccc7C(=O)Nc7ccc(N(C)C)nn7)C6)C5)C4)cn3)nc2n(C2CCCC2)c1=O (centres unmarked) [CPD-424, 2-((1-(2-(6-(6-((6-acetyl-8-cyclopentyl-5-methyl-7-oxo-7,8-dihydropyrido[2,3-d]pyrimidin-2-yl)amino)pyridin-3-yl)-2,6-diazaspiro[3.3]heptan-2-yl)acetyl)pyrrolidin-3-yl)amino)-N-(6-(dimethylamino)pyridazin-3-yl)-6-(isopropylamino)nicotinamide]	< 7.00
CNc1ccc(C(=O)Nc2ccc(N(C)C)nn2)c(NC2CC(C(=O)NC3CCC4(CCN(c5ccc(Nc6ncc7c(C)c(C(C)=O)c(=O)n(C8CCCC8)c7n6)nc5)CC4)C3)C2)n1 (centres unmarked) [CPD-428, 2-((3-((8-(6-((6-acetyl-8-cyclopentyl-5-methyl-7-oxo-7,8-dihydropyrido[2,3-d]pyrimidin-2-yl)amino)pyridin-3-yl)-8-azaspiro[4.5]decan-2-yl)carbamoyl)cyclobutyl)amino)-N-(6-(dimethylamino)pyridazin-3-yl)-6-(methylamino)nicotinamide]	< 7.00

More lines, now with the values ahead:

pIC50	Compound
< 7.00	CC(=O)c1c(C)c2cnc(Nc3ccc(N4CCN(CC(=O)NC(C)(C)C5CC(Nc6nc(NC(C)C)ccc6C(=O)Nc6cc(C)on6)C5)CC4)cn3)nc2n(C2CCCC2)c1=O (centres unmarked) [CPD-410, 2-((3-(2-(2-(4-(6-((6-acetyl-8-cyclopentyl-5-methyl-7-oxo-7,8-dihydropyrido[2,3-d]pyrimidin-2-yl)amino)pyridin-3-yl)piperazin-1-yl)acetamido)propan-2-yl)cyclobutyl)amino)-6-(isopropylamino)-N-(5-methylisoxazol-3-yl)nicotinamide]
< 7.00	CC(=O)c1c(C)c2cnc(Nc3ccc(N4CCC5(CC4)CC5C(=O)NC4CC(Nc5nc(NC(C)C)ccc5C(=O)Nc5ccc(N(C)C)nn5)C4)cn3)nc2n(C2CCCC2)c1=O (centres unmarked) [CPD-413, 6-(6-((6-acetyl-8-cyclopentyl-5-methyl-7-oxo-7,8-dihydropyrido[2,3-d]pyrimidin-2-yl)amino)pyridin-3-yl)-N-(3-((3-((6-(dimethylamino)pyridazin-3-yl)carbamoyl)-6-(isopropylamino)pyridin-2-yl)amino)cyclobutyl)-6-azaspiro[2.5]octane-1-carboxamide]
> 7.30	CC(=O)c1c(C)c2cnc(Nc3ccc(N4CCC5(CC4)CC5C(=O)N4CC5(CC(Nc6nc(NC(C)C)ccc6C(=O)Nc6cc(C)n(C)n6)C5)C4)cn3)nc2n(C2CCCC2)c1=O (centres unmarked) [CPD-415, 2-((2-(6-(6-((6-acetyl-8-cyclopentyl-5-methyl-7-oxo-7,8-dihydropyrido[2,3-d]pyrimidin-2-yl)amino)pyridin-3-yl)-6-azaspiro[2.5]octane-1-carbonyl)-2-azaspiro[3.3]heptan-6-yl)amino)-N-(1,5-dimethyl-1H-pyrazol-3-yl)-6-(isopropylamino)nicotinamide]
< 7.00	CNc1ccc(C(=O)Nc2ccc(N(C)C)nn2)c(NC2CCC3(CC(NC(=O)CN4CCN(c5ccc(Nc6ncc7c(C)c(C(C)=O)c(=O)n(C8CCCC8)c7n6)nc5)CC4)C3)C2)n1 (centres unmarked) [CPD-416, 2-((2-(2-(4-(6-((6-acetyl-8-cyclopentyl-5-methyl-7-oxo-7,8-dihydropyrido[2,3-d]pyrimidin-2-yl)amino)pyridin-3-yl)piperazin-1-yl)acetamido)spiro[3.4]octan-6-yl)amino)-N-(6-(dimethylamino)pyridazin-3-yl)-6-(methylamino)nicotinamide]
> 7.30	CC(=O)c1c(C)c2cnc(Nc3ccc(N4CCC5(CC4)CC5C(=O)N4CCC(Nc5nc(NC(C)C)ccc5C(=O)Nc5cc(C)on5)CC4)cn3)nc2n(C2CCCC2)c1=O (centres unmarked) [CPD-419, 2-((1-(6-(6-((6-acetyl-8-cyclopentyl-5-methyl-7-oxo-7,8-dihydropyrido[2,3-d]pyrimidin-2-yl)amino)pyridin-3-yl)-6-azaspiro[2.5]octane-1-carbonyl)piperidin-4-yl)amino)-6-(isopropylamino)-N-(5-methylisoxazol-3-yl)nicotinamide]
< 7.00	CC(=O)c1c(C)c2cnc(Nc3ccc(CN4CCN(CC(=O)N5CCC(Nc6nc(NC(C)C)ccc6C(=O)Nc6cc(C)n(C)n6)CC5)CC4)cn3)nc2n(C2CCCC2)c1=O [CPD-421, 2-((1-(2-(4-((6-((6-acetyl-8-cyclopentyl-5-methyl-7-oxo-7,8-dihydropyrido[2,3-d]pyrimidin-2-yl)amino)pyridin-3-yl)methyl)piperazin-1-yl)acetyl)piperidin-4-yl)amino)-N-(1,5-dimethyl-1H-pyrazol-3-yl)-6-(isopropylamino)nicotinamide]
> 7.30	CC(=O)c1c(C)c2cnc(Nc3ccc(N4CCC(N(C)CC(=O)N5CCC(Nc6nc(NC(C)C)ccc6C(=O)Nc6ccc(N(C)C)nn6)C5)CC4)cn3)nc2n(C2CCCC2)c1=O (centres unmarked) [CPD-426, 2-((1-(N-(1-(6-((6-acetyl-8-cyclopentyl-5-methyl-7-oxo-7,8-dihydropyrido[2,3-d]pyrimidin-2-yl)amino)pyridin-3-yl)piperidin-4-yl)-N-methylglycyl)pyrrolidin-3-yl)amino)-N-(6-(dimethylamino)pyridazin-3-yl)-6-(isopropylamino)nicotinamide]
> 7.30	CC(=O)c1c(C)c2cnc(Nc3ccc(N4CCC(N(C)CC(=O)N5CC(Nc6nc(NC(C)C)ccc6C(=O)Nc6ccc(N(C)C)nn6)C5)CC4)cn3)nc2n(C2CCCC2)c1=O [CPD-427, 2-((1-(N-(1-(6-((6-acetyl-8-cyclopentyl-5-methyl-7-oxo-7,8-dihydropyrido[2,3-d]pyrimidin-2-yl)amino)pyridin-3-yl)piperidin-4-yl)-N-methylglycyl)azetidin-3-yl)amino)-N-(6-(dimethylamino)pyridazin-3-yl)-6-(isopropylamino)nicotinamide]
< 7.00	CNc1ccc(C(=O)Nc2ccc(N(C)C)nn2)c(NC2CCC(N(C)C(=O)CN3CCN(c4ccc(Nc5ncc6c(C)c(C(C)=O)c(=O)n(C7CCCC7)c6n5)nc4)CC3)C2)n1 (centres unmarked) [CPD-430, 2-((3-(2-(4-(6-((6-acetyl-8-cyclopentyl-5-methyl-7-oxo-7,8-dihydropyrido[2,3-d]pyrimidin-2-yl)amino)pyridin-3-yl)piperazin-1-yl)-N-methylacetamido)cyclopentyl)amino)-N-(6-(dimethylamino)pyridazin-3-yl)-6-(methylamino)nicotinamide]
